Data published in US20250163522A1, “METHODS FOR PRESERVING HEALTHY INTESTINAL MICROBIOME DURING GROWTH PROMOTER ADMINSTRATION” (BIOMEDIT, LLC, priority 2022, published 2025).
Read-outs that look alike come from different tables or passages of the source.

Experiments:
[1] = assay type: in vivo, chickens (Gallus gallus)
Protocol: 15 cecal samples and 10 serum samples from day 35 birds were sent to metabolon (Morrisville, NC) for untargeted metabolomics analysis. These numbers of samples were sent for both the control and narasin treatments. Serum samples were selected sequentially, that is, without knowledge of bird performance or results from other analyses.
Samples were prepared using the automated MicroLab STAR® system from Hamilton Company. Samples were extracted with methanol under vigorous shaking for 2 min (Glen Mills GenoGrinder 2000) to precipitate protein and dissociate small molecules bound to protein or trapped in the precipitated protein matrix, followed by centrifugation to recover chemically diverse metabolites. The resulting extract was divided into four fractions: two for analysis by two separate reverse phase (RP)/Ultrahigh Performance Liquid Chromatography-Tandem Mass Spectroscopy (UPLC-MS/MS) methods using positive ion mode electrospray ionization (ESI), one for analysis by RP/UPLC-MS/MS using negative ion mode ESI, and one for analysis by HILIC/UPLC-MS/MS using negative ion mode ESI. Samples were placed briefly on a TurboVap® (Zymark) to remove the organic solvent. The sample extracts were stored overnight under nitrogen before preparation for analysis.
The sample extract was dried and reconstituted in solvents compatible to each of the four methods. One aliquot was analyzed using acidic positive ion conditions, chromatographically optimized for more hydrophilic compounds. In this method, the extract is gradient-eluted from a C18 column (Waters UPLC BEH C18-2.1×100 mm, 1.7 μm) using water and methanol, containing 0.05% perfluoropentanoic acid (PFPA) and 0.1% formic acid (FA). A second aliquot was also analyzed using acidic positive ion conditions but was chromatographically optimized for more hydrophobic compounds. In this method, the extract is gradient eluted from the C18 column using methanol, acetonitrile, water, 0.05% PFPA and 0.01% FA, and is operated at an overall higher organic content. A third aliquot was analyzed using basic negative ion optimized conditions using a separate dedicated C18 column. The basic extracts were gradient-eluted from the column using methanol and water, and with 6.5 mM Ammonium Bicarbonate at pH 8. The fourth aliquot was analyzed via negative ionization following elution from a HILIC column (Waters UPLC BEH Amide 2.1×150 mm, 1.7 μm) using a gradient consisting of water and acetonitrile with 10 mM Ammonium Formate, pH 10.8. The MS analysis alternates between MS and data-dependent MS^n scans using dynamic exclusion. The scan range varies slightly between methods, but covers approximately 70-1000 m/z.
UPLC-MS/MS was done using a Waters ACQUITY ultra-performance liquid chromatography (UPLC) and a Thermo Scientific Q-Exactive high resolution/accurate mass spectrometer interfaced with a heated electrospray ionization (HESI-II) source and Orbitrap mass analyzer operated at 35,000 mass resolution.
Raw data was extracted, peak-identified, and QC processed using Metabolon's hardware and software. Compounds were identified by comparison to library entries of purified standards. The library, based on authenticated standards, contains the retention time/index (RI), mass to charge ratio (m/z), and chromatographic data (including MS/MS spectral data) on all molecules present in the library. Biochemical identifications were based on three criteria: retention index within a narrow RI window of the proposed identification, accurate mass match to the library+/−10 ppm, and the MS/MS forward and reverse scores. MS/MS scores are based on a comparison of the ions present in the experimental spectrum to ions present in the library entry spectrum.
Peaks were quantified as area-under-the-curve (AUC) detector ion counts. For each identified metabolite, AUC values were rescaled by dividing by the median AUC value across all samples. […]

[2] = system: AMR genes in the cecum microbiome; assay: AMR gene abundance analysis (AMR++ pipeline) of cecal microbiome; assay type: in vivo, chickens (Gallus gallus); details: day 35 cecum
Protocol: AMR gene abundances per sample were determined using the AMR++ pipeline (Lakin, S. M. et al., Nucleic Acids Res 45, D574-D580 (2017)) (v. 2.0.2) starting from the raw metagenomics sequences and using the MegaRes (v. 2.0.0) database. Only genes involved in drug resistance were considered. The AMR gene counts per sample obtained from AMR++ were expressed in unites of reads per kilobase per million reads (RPKM) based on the corresponding gene lengths from the MegaRes database. RPKM values across treatments were compared using the Mann-Whitney U test.

[3] = system: Ross 708 male broilers; assay: Clinical study of in-feed AGPs in broilers: weight gain and feed conversion; assay type: in vivo, chickens (Gallus gallus); details: in-feed: 50 g/ton BMD, 20 g/ton avilamycin, 16.5 g/ton virginiamycin, 70 g/ton narasin; 35 days
From the text: 500 healthy Ross 708 male broilers sourced from a commercial hatchery were used in the experiment. […] Birds were individually tagged with a unique identifier and were randomly assigned to one of 25 floor pens (20 animals per pen). Groups of 5 pens were assigned to each of 5 different treatments. The 5 treatments included: 1) control birds fed least-cost diets as follows: A starter diet was fed from days 0 to 14 of the study, followed by a grower diet (14-28d) and a finisher diet (28-35d). 2) Birds fed the above diets supplemented with 50 g/ton BMD. 3) Supplemented with 20 g/ton avilamycin. 4) Supplemented with 16.5 g/ton Virginiamycin. And 5) supplemented with 70 g/ton narasin. Birds were raised for 35 days in a barn on top of used litter.
Individual body weights were collected on days 0, 7, 21 and 35. Pen weights were collected on days 14 and 28. Feed weigh backs for each pen were done on days 7, 14, 21, 28 and 35 of the study. Average bird weights and feed intake per pen were used to calculate weekly values of average daily gain and feed conversion ratios. Weekly values were compared between treatments using the Mann Whitney U test. On days 7, 21 and 35 three birds per pen were randomly selected and euthanized for the collection of cecal contents and blood. Blood was collected via wing vein venipuncture, except for birds that were too small, in which cases direct heart puncture was used. In both cases, blood was collected into vacutainer tubes and centrifuged to obtain serum. Cecal samples were collected by aseptically squeezing the cecum content into a sterile tube. Cecal samples were placed on dry ice immediately after collection. All samples were stored at −80° C. until processing.

[4] = cecum, day 35, corrected p-value<0.05

Structure (SMILES): CC[C@@H](C(=O)O)[C@@H]1O[C@@H]([C@@H](C)[C@H](O)[C@H](C)C(=O)[C@H](CC)[C@H]2O[C@]3(C=C[C@@H](O)[C@]4(CC[C@@](C)([C@H]5CC[C@](O)(CC)[C@H](C)O5)O4)O3)[C@H](C)C[C@@H]2C)[C@@H](C)C[C@@H]1C [narasin]
- spermidine concentration ([1]; cecum and serum, day 35): lower concentration
- amino acid concentrations compared to controls ([1]; cecum, day 35): all 20 amino acids were found at lower concentrations
- riboflavin concentration ([1]; cecum, day 35): higher concentration
- number of metabolites at higher abundance compared to controls [1, 4]: 49
- number of metabolites at lower abundance compared to controls [1, 4]: 78
- number of metabolites at higher abundance compared to controls ([1]; serum, day 35): 4
- number of metabolites at lower abundance compared to controls ([1]; serum, day 35): 93
- urea level compared to controls ([1]; serum, day 35): lower levels
- effect on AMR gene abundance profiles [2]: significantly different AMR gene abundance profiles
- AMR gene classes changed compared to controls ([2]; Mann-Whitney U p-value<0.05): enriched for resistance to tetracyclines
- total AMR gene abundance compared to control ([2]; RPKM): significant increase
- impact on bird performance [3]: highest impact on performance
